# According to ChEMBL document CHEMBL4706539 (Eur J Med Chem, 2020):
# Activity calls are given as the source filed them. No cut-off for these calls is given here.
# How the values were obtained:
# COLO357 [1] = assay: Antiproliferative activity against human COLO357 cells assessed as reduction in cell growth incubated for 72 hrs by MTT assay; type: functional, cell-based; settings: COLO357, 72 h
# HEK293 = assay: Cytotoxicity against human HEK293 cells assessed as reduction in cell growth incubated for 72 hrs by MTT assay; type: cell-based; settings: HEK293, 72 h
# SW-620 [2] = assay: Antiproliferative activity against human SW-620 cells assessed as reduction in cell growth incubated for 72 hrs by MTT assay; type: functional, cell-based; settings: SW-620, 72 h
# Raji = assay: Antiproliferative activity against human Raji cells assessed as reduction in cell growth incubated for 72 hrs by MTT assay; type: functional, cell-based
# PANC-1 = assay: Antiproliferative activity against human PANC-1 cells assessed as reduction in cell growth incubated for 72 hrs by MTT assay; type: functional, cell-based; settings: PANC-1, 72 h
# HaCaT = assay: Cytotoxicity against human HaCat cells assessed as reduction in cell growth incubated for 72 hrs by MTT assay; type: cell-based
# HeLa = assay: cells; settings: Homo sapiens, 72 h
# Description: Antiproliferative activity against human HeLa cells assessed as reduction in cell growth incubated for 72 hrs by MTT assay
# [3] = Acute toxicity in iv dosed C57BL/6 mouse assessed as lethal dose; type: organism-based; settings: in vivo
# [4] = Acute toxicity in iv dosed BALB/c mouse assessed as mouse death at 5 mg/kg, iv measured after 16 hrs; type: organism-based; settings: in vivo
# [5] = Acute toxicity in iv dosed CBA mouse assessed as mouse death at 5 mg/kg, iv measured after 16 hrs; type: organism-based; settings: in vivo
# [6] = Acute toxicity in iv dosed CD-1 mouse assessed as mouse death at 5 mg/kg, iv measured after 16 hrs; type: organism-based; settings: in vivo
# [7] = Acute toxicity in C57BL/6 mouse assessed as mouse death at 5 mg/kg, iv measured after 16 hrs; type: organism-based; settings: in vivo
# [8] = Acute toxicity in iv dosed A/Sn mouse assessed as mouse death at 5 mg/kg, iv measured after 16 hrs; type: organism-based; settings: in vivo
# COLO357 [9] = assay: Induction of cell cycle arrest in human COLO357 cells assessed as accumulation at G1 phase at 5 nM incubated for 48 hrs by RNase/PI staining based flow cytometry analysis (reference value: 72 %); type: functional
# [10] = Acute toxicity in mouse assessed as lethal dose measured after 7 days; settings: in vivo, time 7 day
# SW-620 [11] = assay: Induction of cell cycle arrest in human SW-620 cells assessed as accumulation at apoptotic phase at 5 nM incubated for 48 hrs by RNase/PI staining based flow cytometry analysis (reference value: 0.8 %); type: functional
# SW-620 [12] = assay: Induction of cell cycle arrest in human SW-620 cells assessed as accumulation at G2/M phase at 5 nM incubated for 48 hrs by RNase/PI staining based flow cytometry analysis (reference value: 16 %); type: functional
# COLO357 [13] = assay: Induction of cell cycle arrest in human COLO357 cells assessed as accumulation at apoptotic phase at 5 nM incubated for 48 hrs by RNase/PI staining based flow cytometry analysis (reference value: 1.3 %); type: functional
# COLO357 [14] = assay: Induction of cell cycle arrest in human COLO357 cells assessed as accumulation at G2/M phase at 5 nM incubated for 48 hrs by RNase/PI staining based flow cytometry analysis (reference value: 13 %); type: functional
# SW-620 [15] = assay: Induction of cell cycle arrest in human SW-620 cells assessed as accumulation at G1 phase at 5 nM incubated for 48 hrs by RNase/PI staining based flow cytometry analysis (reference value: 65 %); type: functional
# Tubulin (Homo sapiens) [16] = target: T1, Tubulin (Homo sapiens) (UniProt P68371+Q9H4B7+P0DPH7+P68366+Q13509+Q71U36+P04350+Q3ZCM7+P07437+P68363+Q9BQE3+Q6PEY2+Q13885+Q9BVA1+Q9BUF5); assay: Inhibition of tubulin assembly in human COLO357 cells assessed as induction of chromosome disturbance at 5 nM incubated for 24 hrs by Hoechst 33342 staining based confocal microscopic analysis; type: cell-based
# Tubulin (Homo sapiens) [17] = target: T1, Tubulin (Homo sapiens); assay: Inhibition of tubulin assembly in human COLO357 cells assessed as induction of tubulin dissipation at 5 nM incubated for 24 hrs by Hoechst 33342 staining based confocal microscopic analysis; type: cell-based
# Tubulin (Homo sapiens) [18] = target: T1, Tubulin (Homo sapiens); assay: Inhibition of tubulin assembly in human SW-620 cells assessed as disruption of mitotic spindle at 5 nM incubated for 24 hrs by Hoechst 33342 staining based confocal microscopic analysis; type: cell-based
# Tubulin (Homo sapiens) [19] = target: T1, Tubulin (Homo sapiens); assay: Inhibition of tubulin assembly in human SW-620 cells assessed as induction of tubulin dissipation at 5 nM incubated for 24 hrs by Hoechst 33342 staining based confocal microscopic analysis; type: cell-based
# Tubulin (Homo sapiens) [20] = target: T1, Tubulin (Homo sapiens); assay: Inhibition of tubulin assembly in human COLO357 cells assessed as disruption of mitotic spindle at 5 nM incubated for 24 hrs by Hoechst 33342 staining based confocal microscopic analysis; type: cell-based
# [21] = Acute toxicity in C57BL/6 mouse assessed as mouse death at 10 mg/kg, iv; type: organism-based; settings: in vivo
# Ovis aries = species on record: Ovis aries; assay: Inhibition of lamb brain tubulin polymerization assessed as reduction in microtubule assembly at 0.5 to 5 uM incubated for 40 mins at […] by spectrophotometric analysis relative to control; type: tissue-based; settings: dose 0.5-5 µM
# Tubulin (Homo sapiens) [22] = target: T1, Tubulin (Homo sapiens); assay: Inhibition of tubulin assembly in human SW-620 cells assessed as induction of chromosome disturbance at 5 nM incubated for 24 hrs by Hoechst 33342 staining based confocal microscopic analysis; type: cell-based
SMILES,IC50 (COLO357 [1]),IC50 (SW-620 [2]),IC50 (Raji),IC50 (PANC-1),IC50 (HeLa),IC50 (HEK293),IC50 (HaCaT),also measured
COc1cc2c(c(OC)c1OC)-c1cc(I)c(OC(=O)/C=C/C(F)(F)F)cc1[C@@H](NC(C)=O)CC2,30 nM,6 nM,180 nM,,,170 nM,,
C/C=C1/COc2cc3c(cc21)-c1c(cc(OC)c(OC)c1OC)CC[C@@H]3NC(C)=O,5 nM,6 nM,3.8 nM,32 nM,32 nM,3.8 nM,14 nM,
COc1cc2c(c(OC)c1OC)-c1cc(I)c(OC(=O)C=C(C)C)cc1[C@@H](NC(C)=O)CC2,160 nM,32 nM,160 nM,,,805 nM,,
COc1cc2c(c(OC)c1OC)-c1cc3c(C)coc3cc1[C@@H](NC(C)=O)CC2,1.3 nM,1.3 nM,1.3 nM,2.1 nM,0.8 nM,5 nM,0.5 nM,
COc1cc2c(c(OC)c1OC)-c1cc3c(cc1[C@@H](NC(C)=O)CC2)OC/C3=C\c1ccccc1,> 20000 nM,> 20000 nM,4600 nM,> 20000 nM,4020 nM,> 20000 nM,4370 nM,
COc1cc2c(c(OC)c1OC)-c1cc3c(cc1[C@@H](NC(C)=O)CC2)OCC3=C(C)C,860 nM,780 nM,420 nM,850 nM,410 nM,400 nM,390 nM,
COc1cc(-c2cc(=O)oc3cc4c(cc23)-c2c(cc(OC)c(OC)c2OC)CC[C@@H]4NC(C)=O)ccc1O,870 nM,160 nM,837 nM,,,4000 nM,,
C=C1c2cc3c(cc2OC1(F)F)[C@@H](NC(C)=O)CCc1cc(OC)c(OC)c(OC)c1-3,0.02 nM,0.04 nM,0.05 nM,0.01 nM,0.03 nM,0.03 nM,0.03 nM,LD50 [3]: > 10 mg/kg; Activity [4]: Non-Toxic; Activity [5]: Non-Toxic; Activity [6]: Non-Toxic; Activity [7]: Non-Toxic; Activity [8]: Non-Toxic
COc1cc2c(c(OC)c1OC)-c1ccc(OC)c(=O)cc1[C@@H](NC(C)=O)CC2 [COLCHICINE],,2.4 nM,16 nM,0.1 nM,1.3 nM,,0.3 nM,Activity (COLO357 [9]): 62%; LD50 at 168 h [10]: 1.6 mg/kg; Activity (SW-620 [11]): 8.1%; Activity [4]: Toxic; Activity [5]: Toxic; Activity (SW-620 [12]): 74%; Activity (COLO357 [13]): 2%; Activity [6]: Toxic; Activity (COLO357 [14]): 31%; Activity [7]: Toxic; Activity [8]: Toxic; Activity (SW-620 [15]): 7.4%
COC(=O)Cc1coc2cc3c(cc12)-c1c(cc(OC)c(OC)c1OC)CC[C@@H]3NC(C)=O,830 nM,4100 nM,3900 nM,820 nM,805 nM,4420 nM,810 nM,
CC/C=C1/COc2cc3c(cc21)-c1c(cc(OC)c(OC)c1OC)CC[C@@H]3NC(C)=O,800 nM,810 nM,90 nM,80 nM,150 nM,166 nM,135 nM,
C=C1COc2cc3c(cc21)-c1c(cc(OC)c(OC)c1OC)CC[C@@H]3NC(C)=O,0.04 nM,0.02 nM,0.03 nM,0.08 nM,1.7 nM,0.08 nM,0.3 nM,inhibition (Tubulin (Homo sapiens) [16]): Active; Activity (COLO357 [9]): 18%; LD50 [3]: 10 mg/kg; inhibition (Tubulin (Homo sapiens) [17]): Active; Activity (SW-620 [11]): 4%; Activity [4]: Non-Toxic; Activity [5]: Non-Toxic; inhibition (Tubulin (Homo sapiens) [18]): Active; inhibition (Tubulin (Homo sapiens) [19]): Active; inhibition (Tubulin (Homo sapiens) [20]): Active; Activity (SW-620 [12]): 76%; Activity (COLO357 [13]): 2%; Activity [21]: Toxic; Activity [6]: Non-Toxic; Activity (COLO357 [14]): 77%; Activity [7]: Non-Toxic; Activity [8]: Non-Toxic; inhibition (Ovis aries): 50%; inhibition (Tubulin (Homo sapiens) [22]): Active; Activity (SW-620 [15]): 12%

# Now from value to molecule, other results behind:
IC50 (COLO357 [1]),IC50 (SW-620 [2]),IC50 (Raji),IC50 (PANC-1),IC50 (HeLa),SMILES,IC50 (HEK293),IC50 (HaCaT),also measured
4330 nM,> 20000 nM,800 nM,810 nM,4250 nM,COc1cc2c(c(OC)c1OC)-c1cc3c(cc1[C@@H](NC(C)=O)CC2)OC/C3=C(\C)CCC=C(C)C,4280 nM,4500 nM,
161 nM,4 nM,139 nM,,,C/C=C/C(=O)Oc1cc2c(cc1I)-c1c(cc(OC)c(OC)c1OC)CC[C@@H]2NC(C)=O,> 4000 nM,,
> 4000 nM,> 4000 nM,> 4000 nM,,,COC(=O)/C=C/c1cc2c(cc1O)[C@@H](NC(C)=O)CCc1cc(OC)c(OC)c(OC)c1-2,> 4000 nM,,
160 nM,140 nM,16 nM,,,COc1cc2c(c(OC)c1OC)-c1cc3c(C)cc(=O)oc3cc1[C@@H](NC(C)=O)CC2,32 nM,,
810 nM,800 nM,825 nM,,,COc1cc2c(c(OC)c1OC)-c1cc(I)c(OC(=O)/C=C/Cl)cc1[C@@H](NC(C)=O)CC2,810 nM,,
150 nM,30 nM,32 nM,,,C=CC(=O)Oc1cc2c(cc1I)-c1c(cc(OC)c(OC)c1OC)CC[C@@H]2NC(C)=O,158 nM,,
